Drawing on patent publication US20030207932A1, “Compositions that prevent post-traumatic hyperpigmentation and methods related thereto” (priority 2002, published 2003), this text covers development of hyperpigmentation for 1 compound.

Structures are written as SMILES.

The experiment concerns patients with a strong genetic predisposition to post traumatic hyperpigmentation. The experiment in a line: Proof of concept in patients predisposed to post traumatic hyperpigmentation. Type of experiment: in vivo, human. The note with it: five subjects; oral zafirlukast alone, 20 mg two times daily, two weeks prior and thereafter for two months. How it is done:
The patients were known to have this predisposition because prior trauma pigmented areas. Five of the subjects were given the oral composition zafirlukast, two weeks prior and thereafter for two months. The dosage was 20 mg two time daily. The other five individuals were give the same medication that the same dosage for the same amount of time, but in addition, were also given a topical preparation.
Five further patients were then selected with obvious genetic predisposition to post traumatic hyperpigmentation. They were given only the topical composition after their surgical procedure. The topical composition was applied three times daily for two months after the procedure. […] This was completely unexpected. The topical composition, as administered, is described in Table 1 below.

As to `COc1cc(C(=O)NS(=O)(=O)c2ccccc2C)ccc1Cc1cn(C)c2ccc(NC(=O)OC3CCCC3)cc12` [zafirlukast], the development of hyperpigmentation entry is “In no case did hyperpigmentation develop”.
